Assay: Bioavailability: plasma concentration after oral administration to rats
Format: in vivo, male Sprague-Dawley rats
Settings: for AUC: rat plasma, 3 rats; for Presence of the unchanged prodrug in the blood samples: 50 mg/kg po as aqueous solution (PBS), HPLC-MS; for Presence of the unchanged prodrug in the blood samples / Delivery of parent drug (PL-100 / PL-337) compared to non-aqueous formulations of the parent drug: rat; for Delivery of parent drug (PL-100 / PL-337) compared to non-aqueous formulations of the parent drug: aqueous dosing, 50 mg/kg po
Protocol: To assess the extent of in vivo cleavage of the phosphate group from the putative compounds, PL-100, PL-462 (based on PL-100), PL-337 and PL-515 (based on PL-337) compounds were administered per os (po) (50 mg/kg) to male Sprague-Dawley rats and their plasma concentration measured at different time intervals post-administration. All test articles (PL-100, PL-462, PL-337 and PL-515) were prepared in different vehicle at the final concentration of 25 mg/mL. The vehicle composition is as follows: (1) 20% ethanol; 50% propylene glycol; 0.05% w/v Tween 20 and water (Mix); (2) PBS buffer (PBS). Test articles were administered to male Sprague-Dawley rats at a single oral dose of 50 mg/kg. Each article was tested in three rats. Blood samples (0.2-0.3 mL) were collected at the post-dose time of 10, 20, 40, 60, 120, 180 and 360 minutes. The harvested blood was centrifuged to isolate plasma. The resulting plasma was separated and stored at −70° C. Plasma samples together with standards and quality control samples were treated to precipitate proteins, then analyzed by HPLC-MS, for the presence of PL-462, PL-100, PL-515 and PL-337.

[1] = parent drug dosed 50 mg/Kg po in Mix vehicle (20% ethanol; 50% propylene glycol; 0.05% w/v Tween 20 and water)
[2] = prodrug dosed 50 mg/Kg po in PBS vehicle, parent drug detected (PL-100 or PL-337)

| SMILES | AUC [1] [μg/hr * ml] | Presence of the unchanged prodrug in the blood samples | Delivery of parent drug (PL-100 / PL-337) compared to non-aqueous formulations of the parent drug | AUC [2] [μg/hr * ml] |
| --- | --- | --- | --- | --- |
| COC(=O)N[C@H](C(=O)NCCCC[C@@H](CO)N(CC(C)C)S(=O)(=O)c1ccc(N)cc1)C(c1ccccc1)c1ccccc1 [PL-100, (1S,5S)-(1-{5-[(4-amino-benzenesulfonyl)-isobutyl-amino]-6-hydroxy-hexylcarbamoyl}-2,2-diphenyl-ethyl)-carbamic acid methyl ester] | 0.675 ± 0.171 |  |  |  |
| COC(=O)N[C@H](C(=O)NCCCC[C@@H](CO)N(CC(C)C)S(=O)(=O)c1ccc(N)c(F)c1)C(c1ccccc1)c1ccccc1 [PL-337, (1-{5-[(4-amino-3-fluoro-benzenesulfonyl)-isobutyl-amino]-6-hydroxy-hexylcarbamoyl}-2,2-diphenyl-ethyl)-carbamic acid methyl ester] | 1.180 ± 0.196 |  |  |  |
| COC(=O)N[C@H](C(=O)NCCCC[C@@H](COP(=O)([O-])[O-])N(CC(C)C)S(=O)(=O)c1ccc(N)cc1)C(c1ccccc1)c1ccccc1.[Na+].[Na+] [PL-462, (1S,5S)-(1-{5-[(4-amino-benzenesulfonyl)-isobutyl-amino]-6-phosphonooxy-hexylcarbamoyl}-2,2-diphenyl-ethyl)-carbamic acid methyl ester sodium salt] |  | None of the PL-462 and PL-515 compounds, delivered as aqueous solutions, are detected | equivalent to slightly superior | 0.816 ± 0.295 |
| COC(=O)N[C@H](C(=O)NCCCC[C@@H](COP(=O)(O)O)N(CC(C)C)S(=O)(=O)c1ccc(N)c(F)c1)C(c1ccccc1)c1ccccc1 [PL-515, (1S,5S)-(1-{5-[(4-amino-3-fluoro-benzenesulfonyl)-isobutyl-amino]-6-phosphonooxy-hexylcarbamoyl}-2,2-diphenyl-ethyl)-carbamic acid methyl ester] |  | None of the PL-462 and PL-515 compounds, delivered as aqueous solutions, are detected | equivalent to slightly superior | 1.075 ± 0.625 |
